From the NIST ThermoML archive (doi:10.1021/je049959i)
Numbers after ± are expanded uncertainties. Each block holds one compound with its values, some of them ahead of it.

Conditions: Liquid, Closed cell (Static) method

Compound: C=CCC [1-butene]
vapor or sublimation pressure (323.27 K): 596.14 ± 2.1 kPa

Compound: C/C=C/C [(E)-2-butene]
vapor or sublimation pressure (332.05 K): 606.54 ± 2.2 kPa

Compound: C/C=C\C [(Z)-2-butene]
vapor or sublimation pressure (331.92 K): 561.34 ± 2.1 kPa

Compound: CCCO [propan-1-ol]
vapor or sublimation pressure (318.58 K): 9.47 ± 0.17 kPa
vapor or sublimation pressure (323.07 K): 12.07 ± 0.18 kPa
vapor or sublimation pressure (323.26 K): 12.27 ± 0.18 kPa
vapor or sublimation pressure (330.16 K): 17.57 ± 0.19 kPa
vapor or sublimation pressure (331.92 K): 19.07 ± 0.18 kPa
vapor or sublimation pressure (332.05 K): 19.17 ± 0.18 kPa

Results, then the compound that gave them:

vapor or sublimation pressure (318.59 K): 610.84 ± 2.1 kPa
Compound: CC(C)C [2-methylpropane]

vapor or sublimation pressure (323.07 K): 607.94 ± 2.1 kPa
Compound: C=C(C)C [2-methylpropene]

vapor or sublimation pressure (330.16 K): 592.44 ± 2.6 kPa
Compound: CCCC [butane]
